Here are results for six compounds from publication PMC13130965, “An Integrated Approach Combining Regulatory Tests in tg(cyp19a1b:GFP) Zebrafish Embryos to Assess Toxicity, Developmental Effects, and Estrogenic Activity of Chemicals: A Case Study with Bisphenol A Substitutes” (Environmental Science & Technology, 2026).

Molecules are shown by their SMILES. In brackets after ≈: the same amount, converted by molar mass. Like-named read-outs stand apart in the source and are kept apart here.

The EC50 is the concentration that produces a half-maximal response. The term LC50 denotes the concentration that kills 50% of the test population.

Series [1] relates to hERβ. Set-up: method as in Grimaldi et al. The following applies: HELN-hERβ; ref Grimaldi et al.; cited from earlier work.
The test system of series [2] is hERβ. On the set-up: method as in Pelch et al. The following applies: HepG2-hERβ, ref Pelch et al., cited from earlier work.
The conditions of series [3]: ref Adamovsky et al.; cited from earlier work.
Series [4] is described as follows: Refined Fish Embryo Acute Toxicity test (FET, OECD TG 236): mortality. Format: in vivo, zebrafish (Danio rerio). The conditions noted are these: tg(cyp19a1b:GFP), zebrafish, in vivo, other: waterborne exposure of embryos in test solution, LC50 (96h) experimental (FET test), nominal, brackets 95% CI. As for the experimental part:
(§1) Exposures were carried out in presaturated 24-well plates containing one embryo per well in 2 mL of test solution. The exposure was performed under semistatic conditions, with daily renewal of the test solution. The concentration ranges tested, along with a control with the same percentage of solvent alone, are recapitulated in Table S1. All exposure concentrations are reported as nominal. During the time course of the refined FET tests, embryos were observed after 8 h (coagulation), 24 h (lack of somite formation and nondetachment of the tail), and 48, 72, and 96 h of exposure (nondetection of the heartbeat). […] Moreover, hatching rate and nonlethal developmental effects (i.e., yolk deformity, growth retardation, spontaneous movement, edema, blood tail circulation, heart rate, pigmentation, head and tail/spinal malformations, and hemorrhage) were monitored daily. Tail/spinal malformations included lordosis, kyphosis, scoliosis, and reduced tail length.
(§2) This analysis considered all nonlethal developmental end points monitored in the refined FET assay (see above), except effects on hatching, pigmentation, spontaneous movement, and blood circulation. A teratogenic index (TI) was then calculated as the ratio LC50/EC50.
Baseline toxicity and experimental FET LC50 values were used to calculate toxic ratios (TR = predicted baseline toxicity LC50/experimental FET LC50). Compounds with TR < 10 were considered as baseline toxicants.

Series [5] deals with tg(cyp19a1b:GFP) zebrafish embryos. Nature of the series: Refined FET: developmental effects / malformations. The following applies: nominal; for EC50: Danio rerio, end of 96 h exposure, read-out: EC50 malformations (cumulative sublethal end points); for LOEC deformity of yolk: at least 10% of embryos affected. The series is classed as in vivo, zebrafish (Danio rerio). As for the experimental part: as §1, §2

The next series has as its target zebrafish ERβ2 (zfERβ2) (Danio rerio, UniProt Q7ZU32). Nature of the series: ZELH-zfERβ2 luciferase reporter gene assay. Format: cell-based. The following applies: read-out: maximal efficacy. As for the experimental part:
The ZELH-zfERs reporter cell line was previously established after a two-step stable transfection of the zebrafish hepatic cell line ZFL with the luciferase gene under the control of ERE (yielding the ZELH cell line that expresses no functional ER) and the zebrafish ER subtype β2 (yielding the ZELH-zfERβ2 cell line). Cells were cultured, exposed to chemicals for 72 h, and measured for luciferase activity exactly as previously described. , For each chemical, serial dilutions were prepared in DMSO and tested in three independent experiments. The final DMSO concentration in the culture medium was always 0.1% v/v. All tested concentrations refer to nominal concentrations.
In general terms: In a reporter assay the amount or activity of a reporter protein is the signal.

For the next series, the system named is Zebrafish embryos. The following applies: cited from earlier work.
Series [6] concerns cyp19a1b:GFP (brain aromatase) in tg(cyp19a1b:GFP) zebrafish embryos. The series can be described thus: EASZY assay (OECD TG 250): GFP induction. Format: in vivo, zebrafish (Danio rerio). As for the experimental part: The tests were conducted according to OECD TG 250. Newly fertilized cyp19a1b-GFP eggs were transferred to glass crystallizing dishes and exposed for 96 h in a humidified climate chamber (27 ± 2 °C) under semistatic conditions with a total renewal of the test solutions each day. Each condition consisted of three crystallizing dishes, each containing 7 embryos and 15 mL of test medium. Embryos were exposed to a range of nonlethal concentrations of chemicals as determined previously based on the refined FET assays. The tested concentration ranges of bisphenols, along with a control with the same percentage of solvent alone, are summarized in Table S2. All exposure concentrations are reported as nominal. At the end of exposure, transgenic zebrafish embryos were collected for fluorescence imaging to quantify GFP intensity. At the end of the experiments, all living zebrafish embryos were euthanized as described above. […] ICI was added together with bisphenols from 0 to 4 dpf (days post fertilization). […] In all coexposure experiments, the final DMSO concentration was 0.02% (v/v).
For fluorescence imaging, GFP fold induction was expressed as mean ± SEM, and values were compared to the DMSO control using one-way ANOVA followed by Dunnett’s posthoc test. […]

Another series relates to Adult Zebrafish. The conditions noted are these: ref Ren et al. (2017); cited from earlier work.
The mark [7] stands for this setting: zebrafish embryos, ref Gao et al.
[8] abbreviates: 120h-exposure, ref Qiu et al. (2021).
Setting [9] is: zebrafish embryos, ref Ren et al. (2017).
Setting [10] is: 150h exposure, ref Song et al. (2014).

As to `C[C@]12CC[C@@H]3c4ccc(O)cc4CC[C@H]3[C@@H]1CC[C@@H]2O` [E2, 17β-Estradiol, reference compound], the EC50 in the series on hERβ [1] is […]; with hERβ [2] (NA = not active), […].

Chain of zebrafish ERβ2 (zfERβ2) (Q7ZU32 1-553): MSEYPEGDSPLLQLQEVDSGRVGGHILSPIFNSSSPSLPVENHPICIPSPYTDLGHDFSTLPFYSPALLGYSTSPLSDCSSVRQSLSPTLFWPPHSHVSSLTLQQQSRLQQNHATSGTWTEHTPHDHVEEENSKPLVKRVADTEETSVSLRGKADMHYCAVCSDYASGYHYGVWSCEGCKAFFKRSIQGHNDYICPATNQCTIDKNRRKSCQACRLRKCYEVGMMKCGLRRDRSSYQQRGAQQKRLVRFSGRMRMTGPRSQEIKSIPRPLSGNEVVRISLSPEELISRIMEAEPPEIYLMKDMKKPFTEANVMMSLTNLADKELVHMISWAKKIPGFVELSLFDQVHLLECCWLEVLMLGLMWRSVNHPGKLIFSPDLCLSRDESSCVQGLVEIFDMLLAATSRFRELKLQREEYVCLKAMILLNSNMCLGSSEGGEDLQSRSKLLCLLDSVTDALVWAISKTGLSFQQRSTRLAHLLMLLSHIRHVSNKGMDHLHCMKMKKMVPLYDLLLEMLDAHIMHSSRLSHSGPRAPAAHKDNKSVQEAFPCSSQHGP

`O=S(=O)(c1ccc(O)cc1)c1ccc(OCc2ccccc2)cc1` [BPS-MPE, 4-(4-phenylmethoxyphenyl) sulfonylphenol]: the “Log Kow” value in series [3] is on record as 4.18. Besides, the maximal efficacy with hERβ [2] is given as 4%. In addition, in series [4], the LC50 at 96 h was 3.17 µg/mL (≈ 9.31 µM). Besides, in series [5], the EC50 came out at 3.45 µg/mL (≈ 10.1 µM).

For `Cc1cc(C(C)(C)c2ccc(O)c(C)c2)ccc1O` [BPC, 4-[2-(4-hydroxy-3-methylphenyl)propan-2-yl]-2-methylphenol], at zebrafish ERβ2 (zfERβ2), the Emax worked out at 66%. Also, the “Log Kow” value in series [3] was 4.32. Besides, in series [4], the LC50 at 96 h was 4.92 µg/mL (≈ 19.2 µM). For the same compound, in [5], the concentration giving a half-maximal response (EC50) is 2.77 µg/mL (≈ 10.8 µM), the “LOEC heart rate disruption” value turned out to be 8.53 mg/L, the LOEC hemorrhage is on record as 8.53 mg/L and the “LOEC no blood tail circulation” value came out at 8.53 mg/L. The compound also registered an LOEC tail/spinal malformations in [5] of 8.53 mg/L. Further, in the series on Zebrafish embryos (setting [7]), the “LC50 (96h) literature” value is 2.22 µg/mL (≈ 8.66 µM).

With `CCC(C)(c1ccc(O)cc1)c1ccc(O)cc1` [BPB, 4-[2-(4-hydroxyphenyl)butan-2-yl] phenol], the Emax at zebrafish ERβ2 (zfERβ2) came out at 66%. For the same compound, in the series with hERβ [1], the EC50 is 128 nM and the maximal efficacy was 60%. For the same compound, the “Log Kow” value in series [3] was 3.95. Also, the maximal efficacy in the series with hERβ [2] is given as 56%. Moreover, the minimal effective concentration in series [6] (Danio rerio, 96 h, read-out: EASZY LOEC (GFP induction), nominal) came out at 0.312 µg/mL. The same compound came in with an LC50 at 96 h in series [4] of 6.85 µg/mL (≈ 28.3 µM). In addition, in the series on Adult Zebrafish, the “LC50(24h)” value was 5.07 µg/mL (≈ 20.9 µM), the “LC50(48h)” value is 4.64 µg/mL (≈ 19.1 µM), the “LC50(72h)” value is 4.15 µg/mL (≈ 17.1 µM) and the “LC50(96h)” value is 4.15 µg/mL (≈ 17.1 µM). For the same compound, in [5], the EC50 was 5.4 µg/mL (≈ 22.3 µM), the LOEC edema is recorded as 5 mg/L, the LOEC head malformations came out at 10 mg/L and the “LOEC heart rate disruption” value is on record as 10 mg/L. In series [5], the LOEC hemorrhage came out at 10 mg/L, the “LOEC no spontaneous movement” value is 10 mg/L and the “LOEC deformity of yolk” value came to 10 mg/L. In addition, in the series with Zebrafish embryos (setting [8]), the “LOEC (body length, GnRH3 neurons, reproductive neuroendocrine-related genes and hormones)” value is listed as 100 µg/L; the “NOEC (body length, GnRH3 neurons, reproductive neuroendocrine-related genes and hormones)” value is reported as 1 µg/L. Also, the “NOEC (developmental toxicity)” value with Zebrafish embryos (Wildtype (AB/TL), 1-6 dpf static + 6-9 dpf semistatic, ref Catron et al. (2018; 2019)) is on record as 5.1 µM. Moreover, the median lethal concentration (LC50) in the series with Zebrafish embryos (read-out: LC50(96h), Wildtype AB, 96h-exposure, ref Arrokhman et al. (2023)) was 28000 nM. Moreover, in the series with Zebrafish embryos (zebrafish embryos, ref Arrokhman et al.), the “LC50 (96h) literature” value was 6.79 µg/mL (≈ 28 µM). Also, the “LC50 (96h) literature” value in the series on Zebrafish embryos (setting [7]) is 3.52 µg/mL (≈ 14.5 µM). Further, in the series on Zebrafish embryos (setting [9]), the “Body length LOEC” value is 2 mg/L, the “Body length NOEC” value was 1 mg/L, the “LC50(24h)” value is 7.18 µg/mL (≈ 29.6 µM) and the “LC50(48h)” value is 6.54 µg/mL (≈ 27 µM). Further, in the series with Zebrafish embryos (setting [9]), the “LC50(72h)” value was 4.53 µg/mL (≈ 18.7 µM). In the series on Zebrafish embryos (zebrafish embryos, ref Ren et al.), the “LC50 (96h) literature” value was 3.88 µg/mL (≈ 16 µM).

`CC(C)(c1cc(Cl)c(O)c(Cl)c1)c1cc(Cl)c(O)c(Cl)c1` [TCBPA, Tetrachloro-bisphenol A]: the Emax at zebrafish ERβ2 (zfERβ2) amounted to 42%. Further, in the series with hERβ [1], the 50% effective concentration (EC50) was 68000 nM and the maximal efficacy is listed as 21%. Further, the “Log Kow” value in [3] is listed as 6.19. Moreover, in the series on hERβ [2], the maximal efficacy was 15%. The “estrogenic activity in EASZY assay” value in series [6] (zebrafish, in vivo) is reported as “absence of estrogenic activity”. In [4], this compound returned a 50% lethal concentration (LC50) at 96 h of 0.88 µg/mL (≈ 2.4 µM). Besides, in series [5], the EC50 came out at 0.48 µg/mL (≈ 1.31 µM), the LOEC edema was determined as 0.5 mg/L, the LOEC head malformations was determined as 1 mg/L and the “LOEC heart rate disruption” value was 1 mg/L. In series [5], the “LOEC no blood tail circulation” value was 1 mg/L, the “LOEC no spontaneous movement” value was found to be 2 mg/L, the “LOEC no/Less pigmentation” value was found to be 1 mg/L and the LOEC tail/spinal malformations came to 0.5 mg/L. In addition, the “LOEC deformity of yolk” value in series [5] worked out at 1 mg/L. For the same compound, the “concentrations causing lethal effects” value with Zebrafish embryos (3-6 dpf exposure, ref Riu et al. (2014)) is given as “above 1 µM”. In the series on Zebrafish embryos (setting [10]), the “LC50(144h)” value is 0.75 µg/mL (≈ 2.05 µM) and the LOAELs is 1 mg/L. Also, in the series on Zebrafish embryos (zebrafish embryos, ref Song et al.), the “LC50 (96h) literature” value is on record as “≈ 1 mg/L”.

`Oc1ccc(Oc2ccc(O)cc2)cc1` [4,4’-ODP, 4-(4-hydroxyphenoxy)phenol]: on zebrafish ERβ2 (zfERβ2), the Emax stood at 61%. In the series on hERβ [1], the EC50 was 3060 nM and the maximal efficacy is reported as 72%. In addition, the concentration giving a half-maximal response (EC50) in [6] (Danio rerio, 96 h, read-out: EASZY relative EC50, nominal, 96 h) was determined as 0.363 µg/mL (≈ 1.8 µM). In addition, the LC50 at 96 h in series [4] came out at 17.1 µg/mL (≈ 84.3 µM). In [5], the EC50 was found to be 0.35 µg/mL (≈ 1.73 µM), the LOEC edema turned out to be 0.99 mg/L, the LOEC growth retardation came to 8.89 mg/L and the LOEC head malformations turned out to be 2.96 mg/L. For the same compound, in [5], the “LOEC heart rate disruption” value is listed as 2.96 mg/L, the LOEC hemorrhage was 0.99 mg/L, the “LOEC no blood tail circulation” value was 8.89 mg/L and the “LOEC no/Less pigmentation” value worked out at 0.99 mg/L. In series [5], the LOEC tail/spinal malformations stood at 2.96 mg/L and the “LOEC deformity of yolk” value is 2.96 mg/L.
